These results are taken from PMC6272605, “Development and Validation of a Docking-Based Virtual Screening Platform for the Identification of New Lactate Dehydrogenase Inhibitors” (Molecules, 2015).

One assay concerns LDH. Also on record: method as in earlier work. The following applies: Table S1, active compounds included in the enriched dataset; LDH inhibitors binding the open conformation in the presence of NADH; cited from earlier work.
The target in assay [1] is T1, purified human lactate dehydrogenase isoform 5 (hLDH5) (Homo sapiens, UniProt P00338).
T1 construct: purchased Lee Biosolution, Inc., St. Louis, MO, USA
Nature of the assay: hLDH5 inhibition assay (pyruvate→lactate, NADH fluorescence). The format is biochemical. To be noted: 200 μM pyruvate, 40 μM NADH, phosphate buffer pH 7.4, 15 min incubation. How it is done:
LDH assays: The LDH inhibition properties of the selected compounds were evaluated against purified human lactate dehydrogenase isoform 5 (Lee Biosolution, Inc., St. Louis, MO, USA). The “forward” direction (pyruvate→lactate) of the lactate dehydrogenase reaction was conducted, and the kinetic parameters were measured by fluorescence (emission wavelength at 460 nm, excitation wavelength at 340 nm) to monitor the amount of consumed NADH. Assays were carried out in wells containing 200 μL of a reagent solution dissolved in 100 mM phosphate buffer (pH = 7.4). For the IC50 calculations of the compounds, seven different concentrations (in duplicate for each concentration) of the isolated compounds were used to produce the concentration-response curve. All of the compounds were tested in the presence of 200 μM pyruvate and 40 μM NADH. Any background fluorescence likelihood of the tested samples, or NADH fluorescence quenching, was subtracted. In addition to the sample test wells, maximum and minimum controls were also included in each plate. After 15 min of incubation, the final measurements were carried out by using a Victor X3 Microplates Reader (PerkinElmer®). IC50 values were produced using GraphPad Prism software.

Structures are written as SMILES. Where only a bound is given, the exact number is not on record here.

The term IC50 denotes the concentration that gives 50% inhibition. For the compound `Cc1nc2ccc(NC(=O)CCNC(=O)CCCc3ccc(CC(C(=O)O)C(=O)O)cc3)cc2s1` [Compound 2], the half-inhibitory concentration (IC50) in the assay with LDH is 12.1 µM. For the compound `C[C@@H](Nc1nc(-c2cc(C(=O)O)ccc2Cl)cnc1N)c1ccccc1` [Compound 3], the IC50 with LDH is 0.48 µM.

As for `Nc1ccc(C(=O)O)cc1` [Compound 4], the IC50 in the assay with LDH is 0.75 µM. As to `COC(=O)c1ccc(N)cc1` [Compound 5], in the assay with LDH, the IC50 was 0.71 µM. With `COC(=O)c1ccc(NCCO)cc1` [Compound 6], the IC50 with LDH is 0.65 µM.

In the case of `COC(=O)c1ccc(NS(=O)(=O)c2ccc(C)cc2)cc1` [Compound 7], the IC50 in the assay with LDH is 7.4 µM. Take `NCC(O)c1ccccc1` (centres unmarked) [Compound 8]: in the assay with LDH, the IC50 was 4 µM. As for `O=C1NCC(c2ccccc2)O1` (centres unmarked) [Compound 9], the IC50 in the assay with LDH is 14 µM.

Take `CC(C)(C)OC(=O)CN1CC(c2ccccc2)OC1=O` (centres unmarked) [Compound 10]: the IC50 in the assay on LDH is 10 µM. Consider `O=C(O)c1cc2c(C(F)(F)F)cc(-c3ccccc3)cc2n1O` [NHI-1], for which, in assay [1], the IC50 came to 51.7 ± 4.2 µM. In assay [1], `O=C(O)c1ccc(NCCO)cc1` [VS1, 4-((2-Hydroxyethyl)amino)benzoic acid] showed an IC50 of more than 500 µM. The same measure, in the same setting: then `Cc1ccc(S(=O)(=O)Nc2ccc(C(=O)O)cc2)cc1` [VS2, 4-(4-Methylphenylsulfonamido)benzoic acid], with more than 500 µM; and `O=C(O)CN1CC(c2ccccc2)OC1=O` (centres unmarked) [VS3, 2-(2-Oxo-5-phenyloxazolidin-3-yl)acetic acid], with more than 500 µM. Compound `O=C(O)CCCC(=O)Nc1ccccc1` [VS4] came in with an IC50 in assay [1] of more than 500 µM. The same measure, in the same setting: then `Cc1ccc(C)c(C(O)C(=O)O)c1` (centres unmarked) [VS5], with more than 500 µM. The same measure, in the same setting: as for `CC(C)C(NC(=O)OCc1ccccc1)C(=O)Nc1ccccc1` (centres unmarked) [VS6], the figure is 246 ± 10.8 µM; as for `O=C(O)CCC(=O)c1ccc(F)cc1` [VS7], more than 500 µM.

In turn, `COC(=O)C(NC(=O)c1cc([N+](=O)[O-])cc([N+](=O)[O-])c1)c1ccccc1` (centres unmarked) [VS8] showed an IC50 in assay [1] of 269 ± 58.1 µM. Same read-out and setting: as for `Cc1ccc(C(N)C(=O)O)cc1` (centres unmarked) [VS10], the figure is more than 500 µM; as for `O=c1cc2oc(O)c3cc(O)c(O)c(O)c3c-2oc1=O` [galloflavin], 91.7 ± 10.7 µM.
